# From patent US12193441B2, “Antimicrobial mixtures comprising at least one hydroxyphenone derivative” (SYMRISE AG, priority 2018, dated 2025)
# System: A. brasiliensis
# Test: Minimum Inhibitory Concentration (MIC) and Kull synergy index against A. brasiliensis
# Assay type: cell-based
# Parameters: unit not given here
# Conditions: not given
# Text: To calculate the synergism between compounds of formula (I) and other antimicrobial actives, the Kull equation^1 2 was used SI=(Cmixture×PA)/CA+(Cmixture×PB)/CB (I) • where • SI is the Synergy Index according to Kull^1), 2) • CA is the […] for substance A • CB is the cell count for substance B • Cmixture is the cell count for the mixture of substances A and B • PA is the proportion of the substance A in the mixture • PB is the proportion of the substance B in the mixture. ^1 Kull, F. C., Eismann, P. C., Sylvestrowicz, H. D., and R. L. Mayer (1961). Mixtures of Quaternary Ammonium Compounds and Long-chain Fatty Acids as Antifungal Agents. Applied Microbiology 9, 538-541.^2 Steinberg, D. C. (2000). Measuring Synergy. Cosmetics & Toiletries 115 (11), 59-62.
# Antimicrobil activity was evaluated by determining the Minimum Inhibitory Concentration (MIC) representing the lowest concentration of a chemical which prevents visible growth of a bacterium.
# The MIC values were determined by preparing solutions of the chemical in vitro at increasing concentrations, incubating the solutions with the separate batches of cultured bacteria, and measuring the results using agar dilution or broth microdilution. Results have been graded into susceptible (often called sensitive), intermediate, or resistant to a particular antibiotic by using a cutoff point. Cut off points are agreed upon values, published in guidelines of a reference body, such as the U.S. Clinical and Laboratory Standards Institute (CLSI), the British Society for Antimicrobial Chemotherapy (BSAC) or the European Committee on Antimicrobial Susceptibility Testing (EUCAST).
row,Compound,MIC (Comparison: MIC values for the actives taken alone)
1,C/C=C/C=C/C(=O)[O-].[K+] [Potassium sorbate],5000

# Same assay, conditions: active taken alone; A. brasiliensis
row,Compound,MIC (Comparison: MIC values for the actives taken alone)
1,"OCCCO [1,3-Propanediol]",200.000
2,CCCCCCCCCCCC(=O)N[C@@H](CCCN=C(N)N)C(=O)OCC.Cl [Ethyl lauroyl arginate HCl],2.000
3,"CCCCNC(=O)OCC#CI [IPBC, 3-Iodo-2-propynylbutylcarbamate, 3-Iodo-2-propynylbutylcarbamate]",1
4,O=C([O-])c1ccccc1.[Na+] [Sodium benzoate],10.000
5,"Oc1cc(Cl)ccc1Oc1ccc(Cl)cc1Cl [Triclosan, 2,4,4′-trichloro-2′-hydroxy-diphenyl ether]",32
6,Glceryl caprylate,2.000
7,Sorbitan caprylate,4000

# More lines, now with the values ahead:
row,MIC (Comparison: MIC values for the actives taken alone),Compound
1,2500,CC(=O)c1ccc(O)cc1 [4-Hydroxyacetophenone]
2,250,Cc1cc(O)ccc1C(C)C [4-Isopropyl-3-methylphenol]
3,5000,OCc1ccccc1 [Benzyl alcohol]
4,2000,"O=[N+]([O-])C(Br)(CO)CO [Bronopol, 2-bromo-2-nitro-1,3-propanediol]"
5,60.000,CCCCCCCC(=O)NCC(=O)O [Capryloyl glycine]
6,64,"CC(C)(C)C(=O)C(Oc1ccc(Cl)cc1)n1ccnc1 (stereo not shown) [Climbazol, Crinipan, Climbazol]"
7,40.000,"O=C(O)CN(CCN(CC(=O)O)CC(=O)O)CC(=O)O [Ethylene diamine tetra acetate (EDTA), Ethylene diamine tetra acetate]"
8,2.000,CCCCCCCCCC(=O)OCC(O)CO (stereo not shown) [Glyceryl caprate]
9,64,"Cc1cc(CC(C)CC(C)(C)C)n(O)c(=O)c1.NCCO (stereo not shown) [Piroctone oleamine, Octopyrox, 1-hydroxy-4-methyl-6-(2,4,4-trimethylpentyl)-2-(1H)-pyridinone monoethanolamine salt]"
10,5.000,C=CCCCCCCCCC(=O)NCC(=O)O [Undecenoyl glycin]
11,500,"C=CCCCCCCCCC(=O)O [Undecylenic acid, Undec-10-enoic acid, Undec-10-enoic acid]"

# System: mold growth on moist alfalfa hay
# Test: not given
# Conditions: preservation of moist alfalfa hay; cited from earlier work
row,Compound,prevention of mold growth
1,CC(=O)c1ccc(O)cc1 [4-Hydroxyacetophenone],not prevent mold growth

# System: subcutaneous inflammation
# Test: not given
# Conditions: administered intraperitoneally; cited from earlier work
row,Compound,reduction of subcutaneous inflammation
1,CC(=O)c1ccc(O)cc1 [4-Hydroxyacetophenone],one of the active compounds reducing subcutaneous inflammation

# System: not given
# Test: not given
# Conditions: chemical in vitro assay; constituent of Tagetes mendocina; cited from earlier work
row,Compound,antioxidant activity
1,CC(=O)c1ccc(O)cc1 [4-Hydroxyacetophenone],one of the active constituents
